{
  "source": "patent US20160311806A1",
  "about": "“4,4'-BIPHENYLDIYL-BIS-(1 H-IMIDAZOLYL) DERIVATIVES AS HEPATITIS HCV INHIBITORS” (BRISTOL-MYERS SQUIBB COMPANY, priority 2013, published 2016)",
  "key": {"HCV 1b genotype": {"tested_on": "HCV 1b genotype", "test": "HCV replicon assay, genotype 1b", "format": "cell-based", "conditions": "Hepatitis C virus, read-out: 1b LE (EC50)", "experimental": "(§1) An HCV Replicon assay was utilized in the present disclosure, and was prepared, conducted and validated as described in commonly owned PCT/US2006/022197 and in O'Boyle et. al. Antimicrob Agents Chemother. 2005 April; 49(4):1346-53. Assay methods incorporating luciferase reporters have also been used as described (Apath.com).\n(§2) HCV-neo replicon cells and replicon cells containing resistance substitutions in the NS5A region were used to test the currently described family of compounds. The compounds were determined to have differing degrees of reduced inhibitory activity on cells containing mutations vs. the corresponding inhibitory potency against wild-type cells. Thus, the compounds of the present disclosure can be effective in inhibiting the function of the HCV NS5A protein and are understood to be as effective in combinations as previously described in application PCT/US2006/022197 and commonly owned WO/04014852. It should be understood that the compounds of the present disclosure can inhibit multiple genotypes of HCV."}, "HCV 1a": {"tested_on": "HCV 1a", "test": "HCV replicon assay, genotype 1a", "format": "cell-based", "conditions": "Hepatitis C virus, read-out: 1a LE (EC50)", "experimental": "as §1, §2"}},
  "note": "Like-named read-outs stand apart in the source and are kept apart here.",
  "data": [
    {"smiles": "CC[C@@H]1C[C@@H]([C@H](NC(=O)OC)C(=O)N2[C@@H](C)CC[C@H]2c2ncc(-c3ccc(-c4ccc(-c5cnc([C@@H]6CC[C@H](C)N6C(=O)[C@@H](NC(=O)OC)[C@H]6C[C@@H](C)O[C@H](C7CC7)C6)[nH]5)cc4)cc3)[nH]2)C[C@@H](C)O1", "note": "[Example 1, methyl N-[(1S)-1-[(2S,4S,6R)-2-cyclopropyl-6-methyloxan-4-yl]-2-[(2S,5S)-2-{5-[4-(4-{2-[(2S,5S)-1-[(2S)-2-[(2R,4S,6R)-2-ethyl-6-methyloxan-4-yl]-2-[(methoxycarbonyl)amino]acetyl]-5-methylpyrrolidin-2-yl]-1H-imidazol-5-yl}phenyl)phenyl]-1H-imidazol-2-yl}-5-methylpyrrolidin-1-yl]-2-oxoethyl]carbamate]", "values": [
      {"measurement": "EC50", "setting": "HCV 1b genotype; given as range class", "result": "2 to 8", "unit": "pM"},
      {"measurement": "EC50", "setting": "HCV 1a; given as range class", "result": "2 to 8", "unit": "pM"}
    ]},
    {"smiles": "CC[C@@H]1C[C@@H]([C@H](NC(=O)OC)C(=O)N2[C@@H](C)CC[C@H]2c2ncc(-c3ccc(-c4ccc(-c5cnc([C@@H]6CC[C@H](C)N6C(=O)[C@@H](NC(=O)OC)[C@H]6C[C@@H](C)O[C@H](C7CC7)C6)[nH]5)cc4)cc3)[nH]2)CCO1", "note": "[Example 2, methyl N-[(1S)-1-[(2S,4S,6R)-2-cyclopropyl-6-methyloxan-4-yl]-2-[(2S,5S)-2-{5-[4-(4-{2-[(2S,5S)-1-[(2S)-2-[(2R,4S)-2-ethyloxan-4-yl]-2-[(methoxycarbonyl)amino]acetyl]-5-methylpyrrolidin-2-yl]-1H-imidazol-5-yl}phenyl)phenyl]-1H-imidazol-2-yl}-5-methylpyrrolidin-1-yl]-2-oxoethyl]carbamate]", "values": [
      {"measurement": "EC50", "setting": "HCV 1b genotype", "result": 5.76, "unit": "pM"},
      {"measurement": "EC50", "setting": "HCV 1a", "result": 4.52, "unit": "pM"}
    ]},
    {"smiles": "COC(=O)N[C@H](C(=O)N1[C@@H](C)CC[C@H]1c1ncc(-c2ccc(-c3ccc(-c4cnc([C@@H]5CC[C@H](C)N5C(=O)[C@@H](NC(=O)OC)[C@H]5C[C@@H](C)O[C@H](C6CC6)C5)[nH]4)cc3)cc2)[nH]1)C(C)C", "note": "[Example 3, methyl N-[(1S)-1-[(2S,4S,6R)-2-cyclopropyl-6-methyloxan-4-yl]-2-[(2S,5S)-2-{5-[4-(4-{2-[(2S,5S)-1-[(2S)-2-[(methoxycarbonyl)amino]-3-methylbutanoyl]-5-methylpyrrolidin-2-yl]-1H-imidazol-5-yl}phenyl)phenyl]-1H-imidazol-2-yl}-5-methylpyrrolidin-1-yl]-2-oxoethyl]carbamate]", "values": [
      {"measurement": "EC50", "setting": "HCV 1b genotype", "result": 2.72, "unit": "pM"},
      {"measurement": "EC50", "setting": "HCV 1a", "result": 7.18, "unit": "pM"}
    ]},
    {"smiles": "COC(=O)N[C@H](C(=O)N1[C@@H](C)CC[C@H]1c1ncc(-c2ccc(-c3ccc(-c4cnc([C@@H]5CC[C@H](C)N5C(=O)[C@H](NC(=O)OC)c5ccccc5)[nH]4)cc3)cc2)[nH]1)[C@H]1C[C@@H](C)O[C@H](C2CC2)C1", "note": "[Example 4, methyl N-[(1S)-1-[(2S,4S,6R)-2-cyclopropyl-6-methyloxan-4-yl]-2-[(2S,5S)-2-{5-[4-(4-{2-[(2S,5S)-1-[(2R)-2-[(methoxycarbonyl)amino]-2-phenylacetyl]-5-methylpyrrolidin-2-yl]-1H-imidazol-5-yl}phenyl)phenyl]-1H-imidazol-2-yl}-5-methylpyrrolidin-1-yl]-2-oxoethyl]carbamate]", "values": [
      {"measurement": "EC50", "setting": "HCV 1b genotype; given as range class", "result": "2 to 8", "unit": "pM"},
      {"measurement": "EC50", "setting": "HCV 1a; given as range class", "result": "2 to 8", "unit": "pM"}
    ]},
    {"smiles": "COC(=O)N[C@H](C(=O)N1[C@@H](C)CC[C@H]1c1ncc(-c2ccc(-c3ccc(-c4cnc([C@@H]5CC[C@H](C)N5C(=O)[C@@H](NC(=O)OC)[C@H]5C[C@@H](C)O[C@H](C6CC6)C5)[nH]4)cc3)cc2)[nH]1)C1C[C@@H](C)O[C@H](C)C1", "note": "(stereo partly drawn) [Example 5, methyl N-[(1S)-1-[(2S,4S,6R)-2-cyclopropyl-6-methyloxan-4-yl]-2-[(2S,5S)-2-{5-[4-(4-{2-[(2S,5S)-1-[(2S)-2-[(2R,6R)-2,6-dimethyloxan-4-yl]-2-[(methoxycarbonyl)amino]acetyl]-5-methylpyrrolidin-2-yl]-1H-imidazol-5-yl}phenyl)phenyl]-1H-imidazol-2-yl}-5-methylpyrrolidin-1-yl]-2-oxoethyl]carbamate]", "values": [
      {"measurement": "EC50", "setting": "HCV 1b genotype; given as range class", "result": "2 to 8", "unit": "pM"},
      {"measurement": "EC50", "setting": "HCV 1a; given as range class", "result": "2 to 8", "unit": "pM"}
    ]}
  ]
}
